ChEMBL document CHEMBL1201862, “PubChem BioAssay data set” (2004)
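Following 48 hours of exposure in 96-well plates, responses at five concentrations were used to interpolate endpoints linearly. Abbreviation: GI50, concentration required for 50% inhibition of growth.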 The source made the active and inactive calls. No stated cut-off is given here; in the data, active = GI50 up to about 1.1 µM and inactive = higher.

Tests used:
Experiment in all cases: NCI-60 cell line screen, 48 h
Malme-3M = tested on: Malme-3M
HL-60 = tested on: HL-60
SN12C = tested on: SN12C
SNB-78 = tested on: SNB-78
CCRF-CEM = tested on: CCRF-CEM
SF-268 = tested on: SF-268
CAKI-1 = tested on: CAKI-1
SNB-19 = tested on: SNB-19
SK-MEL-2 = tested on: SK-MEL-2
IGROV-1 = tested on: IGROV-1
A549 = tested on: A549
SR = tested on: SR
A498 = tested on: A498
SK-MEL-5 = tested on: SK-MEL-5
SK-MEL-28 = tested on: SK-MEL-28
TK-10 = tested on: TK-10
HOP-62 = tested on: HOP-62
T47D = tested on: T47D
MDA-MB-435 = tested on: MDA-MB-435
BT-549 = tested on: BT-549

C=CCNC1=C(C(=O)OCC)C(=O)CO1
GI50 (Malme-3M): > 100 µM (inactive)
GI50 (HL-60): > 100 µM (inactive)
GI50 (SN12C): > 100 µM (inactive)
GI50 (SNB-78): > 100 µM (inactive)
GI50 (CCRF-CEM): > 100 µM (inactive)
GI50 (SF-268): > 100 µM (inactive)
GI50 (CAKI-1): > 100 µM (inactive)
GI50 (SNB-19): > 100 µM (inactive)
GI50 (SK-MEL-2): > 100 µM (inactive)
GI50 (IGROV-1): > 100 µM (inactive)
GI50 (A549): > 100 µM (inactive)
GI50 (SR): > 100 µM (inactive)
GI50 (A498): > 100 µM (inactive)
GI50 (SK-MEL-5): > 100 µM (inactive)
GI50 (SK-MEL-28): > 100 µM (inactive)
GI50 (TK-10): > 100 µM (inactive)

CC1(C)CC(=O)C(CC2C(=O)c3ccccc3C2=O)C(=O)C1
GI50 (Malme-3M): > 100 µM (inactive)
GI50 (HL-60): > 100 µM (inactive)
GI50 (SN12C): > 100 µM (inactive)
GI50 (SNB-78): > 100 µM (inactive)
GI50 (CCRF-CEM): > 100 µM (inactive)
GI50 (SF-268): > 100 µM (inactive)
GI50 (CAKI-1): > 100 µM (inactive)
GI50 (SNB-19): > 100 µM (inactive)
GI50 (SK-MEL-2): > 100 µM (inactive)
GI50 (IGROV-1): > 100 µM (inactive)
GI50 (A549): > 100 µM (inactive)
GI50 (SR): 53.7 µM (inactive)
GI50 (A498): > 100 µM (inactive)
GI50 (SK-MEL-5): > 100 µM (inactive)
GI50 (SK-MEL-28): > 100 µM (inactive)
GI50 (HOP-62): > 100 µM (inactive)
GI50 (TK-10): > 100 µM (inactive)

C=CCC(C)(C(=O)NCCC)C(=O)c1ccccc1O (centres undefined)
GI50 (Malme-3M): > 100 µM (inactive)
GI50 (HL-60): > 100 µM (inactive)
GI50 (SN12C): > 100 µM (inactive)
GI50 (SNB-78): > 100 µM (inactive)
GI50 (CCRF-CEM): > 100 µM (inactive)
GI50 (SF-268): > 100 µM (inactive)
GI50 (CAKI-1): > 100 µM (inactive)
GI50 (SNB-19): > 100 µM (inactive)
GI50 (SK-MEL-2): > 100 µM (inactive)
GI50 (IGROV-1): > 100 µM (inactive)
GI50 (A549): > 100 µM (inactive)
GI50 (SR): > 100 µM (inactive)
GI50 (A498): > 100 µM (inactive)
GI50 (SK-MEL-5): > 100 µM (inactive)
GI50 (SK-MEL-28): > 100 µM (inactive)
GI50 (HOP-62): > 100 µM (inactive)
GI50 (TK-10): > 100 µM (inactive)

c1ccc2[nH]c(-c3nc4ccccc4o3)nc2c1
GI50 (Malme-3M): > 100 µM (inactive)
GI50 (HL-60): 17.6 µM (inactive)
GI50 (SN12C): > 100 µM (inactive)
GI50 (SNB-78): > 100 µM (inactive)
GI50 (CCRF-CEM): > 100 µM (inactive)
GI50 (SF-268): > 100 µM (inactive)
GI50 (SK-MEL-2): > 100 µM (inactive)
GI50 (IGROV-1): 46.5 µM (inactive)
GI50 (A549): > 100 µM (inactive)
GI50 (SR): > 100 µM (inactive)
GI50 (A498): > 100 µM (inactive)
GI50 (SK-MEL-5): 62.8 µM (inactive)
GI50 (SK-MEL-28): > 100 µM (inactive)
GI50 (HOP-62): > 100 µM (inactive)
GI50 (TK-10): 45.1 µM (inactive)

C[n+]1c(Cl)cn2c3nc4ccccc4nc3c([O-])c(C#N)c21
GI50 (Malme-3M): > 100 µM (inactive)
GI50 (HL-60): > 100 µM (inactive)
GI50 (T47D): 41.7 µM (inactive)
GI50 (MDA-MB-435): > 100 µM (inactive)
GI50 (BT-549): > 100 µM (inactive)
GI50 (SN12C): > 100 µM (inactive)
GI50 (SNB-78): > 100 µM (inactive)
GI50 (CCRF-CEM): 77.3 µM (inactive)
GI50 (SF-268): > 81.3 µM (inactive)
GI50 (CAKI-1): > 100 µM (inactive)
GI50 (SNB-19): > 100 µM (inactive)
GI50 (SK-MEL-2): > 4.65 µM (inactive)
GI50 (IGROV-1): > 100 µM (inactive)
GI50 (A549): > 100 µM (inactive)
GI50 (SR): > 74.8 µM (inactive)
GI50 (A498): > 62.7 µM (inactive)
GI50 (SK-MEL-5): > 4.65 µM (inactive)
GI50 (SK-MEL-28): > 100 µM (inactive)
GI50 (HOP-62): > 10 µM (inactive)
GI50 (TK-10): > 10 µM (inactive)

CC(=O)C(O)N1C(=O)C=CC1=O (centres undefined)
GI50 (Malme-3M): 2.19 µM (inactive)
GI50 (HL-60): 1.74 µM (inactive)
GI50 (T47D): > 25 µM (inactive)
GI50 (MDA-MB-435): 17.7 µM (inactive)
GI50 (BT-549): 8 µM (inactive)
GI50 (SN12C): 2.83 µM (inactive)
GI50 (SNB-78): 16.9 µM (inactive)
GI50 (SF-268): 7.05 µM (inactive)
GI50 (CAKI-1): 1.79 µM (inactive)
GI50 (SNB-19): 17.6 µM (inactive)
GI50 (SK-MEL-2): 17.5 µM (inactive)
GI50 (IGROV-1): 21.1 µM (inactive)
GI50 (SR): 1.99 µM (inactive)
GI50 (A498): 18.1 µM (inactive)
GI50 (SK-MEL-5): 17.8 µM (inactive)
GI50 (SK-MEL-28): 10.4 µM (inactive)
GI50 (HOP-62): 19.5 µM (inactive)
GI50 (TK-10): 2.53 µM (inactive)

COc1cc2c(c(OC)c1OC)-c1ccc(SC)c(=O)cc1C(CC(=O)Oc1cccc(C#N)c1)C2 (centres undefined)
GI50 (Malme-3M): 0.175 µM (active)
GI50 (HL-60): 0.254 µM (active)
GI50 (SN12C): 0.48 µM (active)
GI50 (SNB-78): 0.57 µM (active)
GI50 (CCRF-CEM): 0.337 µM (active)
GI50 (SF-268): 0.512 µM (active)
GI50 (CAKI-1): 3.42 µM (inactive)
GI50 (SNB-19): 0.678 µM (active)
GI50 (SK-MEL-2): 0.348 µM (active)
GI50 (IGROV-1): 2.06 µM (inactive)
GI50 (A549): 0.516 µM (active)
GI50 (SR): 0.134 µM (active)
GI50 (A498): 0.015 µM (active)
GI50 (SK-MEL-5): 0.313 µM (active)
GI50 (SK-MEL-28): 0.724 µM (active)
GI50 (HOP-62): 0.638 µM (active)
